Laboratory results from ChEMBL document CHEMBL1156829 (Proc Natl Acad Sci U S A, 2008).

Key:
Plasmodium falciparum [1] = assay: NOVARTIS: Inhibition of Plasmodium falciparum W2 (drug-resistant) proliferation in erythrocyte-based infection assay; format: functional, organism-based; details: read-out: EC50
[2] = NOVARTIS: Cytotoxicity against human hepatocellular carcinoma cell line (Huh7); format: toxicity, cell-based, Huh-7; details: Huh7 cells (hepatocellular carcinoma cell line)
Plasmodium falciparum [3] = assay: NOVARTIS: Inhibition of Plasmodium falciparum 3D7 (drug-susceptible) proliferation in erythrocyte-based infection assay; format: functional, organism-based

| SMILES | EC50 (Plasmodium falciparum [1]; Plasmodium falciparum, W2) [nM] | CC50 [2] [µM] | EC50 (Plasmodium falciparum [3]; Plasmodium falciparum, 3D7) [nM] | EC50 (Plasmodium falciparum [3]) [nM] | EC50 (Plasmodium falciparum [1]) [nM] |
| --- | --- | --- | --- | --- | --- |
| CC(C)NC(=O)CN(C)C1c2ccccc2CCc2ccccc21 | 254 | > 9.18 | > 1380 | – | – |
| O=C1N(Cc2cc3ccccc3s2)CC2CN(Cc3ccsc3)CCN12 (stereo not drawn) | 153 | > 100 | 107 | – | – |
| CCOC(=O)C(=CNc1ccccc1[N+](=O)[O-])C(=O)OCC | 1730 | > 100 | 7990 | – | – |
| Cc1ccccc1OCc1nnc(SCC(=O)Nc2ccc([N+](=O)[O-])cc2)n1C | 26.7 | > 10 | > 1250 | – | – |
| O=C(Nc1ccc(-c2nc3ccccc3[nH]2)cc1)c1ccc(Cl)c(Cl)c1 | 1820 | > 100 | 523 | – | – |
| Clc1ccc2[nH]c3c(NCCCN4CCOCC4)ncnc3c2c1 | 152 | 31.2 | 109 | – | – |
| CC1CCCCN1CCCNCc1ccc(OCc2ccccc2)cc1 (stereo not drawn) | 298 | 4.65 | 385 | – | – |
| COc1ccc(Cn2cccc(C(=O)Nc3ccc(OC)cc3)c2=O)cc1 | 3110 | 42.5 | > 12500 | – | – |
| CC1(C)CN=C(NCc2ccccc2Cl)S1 | 1480 | 34.2 | 7450 | – | – |
| N#Cc1c2c(c(N3CCN(c4ccccn4)CC3)n3c1nc1ccccc13)CCC2 | 1180 | > 100 | 2360 | – | – |
| CSc1oc(-c2ccccc2)nc1C(N)=O | > 925 | > 10 | > 1200 | – | – |
| CN(Cc1cc2ccc(F)cc2n(CCN2CCCCC2)c1=O)CC1COCCO1 (stereo not drawn) | 4620 | > 100 | > 12500 | – | – |
| CC(C)CN(CC(=O)Nc1cc(C(C)(C)C)nn1-c1ccccc1)C(=O)COc1ccccc1 | 432 | 17.6 | 773 | – | – |
| N=c1c2ccccc2nnn1-c1ccc(C(F)(F)F)cc1 | 575 | > 100 | 392 | – | – |
| C=CCSc1ncc(-c2ccc(Cl)cc2)n1C | 1770 | > 100 | > 12500 | – | – |
| O=c1cccc2n1CC1CC2CN(Cc2cccc(O)c2)C1 (stereo not drawn) | 1700 | > 100 | > 12500 | – | – |
| Cn1cc(/C=C/c2cc[n+](C)cc2)c2ccccc21 | 314 | > 8.99 | – | 92.8 | – |
| CN(C=Cc1sc2ccc3ccccc3c2[n+]1C)c1ccccc1 | – | 64.3 | – | 239 | 153 |
| Cc1ccc(-c2cc(-c3ccccc3)c(C#N)c(SCC(O)C[S+]([O-])Cc3ccccc3)n2)cc1 (stereo not drawn) | 1650 | 39.9 | 7170 | – | – |
| C[C@@H]1C[C@@H]([C@H](O)CC2CC(=O)NC(=O)C2)C(=O)[C@@H](C)C1 [CYCLOHEXIMIDE] | 182 | > 100 | 114 | – | – |
| O=C(N=CNNc1ccccc1F)c1cc(OCC(F)(F)F)ccc1OCC(F)(F)F | < 3.13 | > 10 | > 532 | – | – |
| CC(OC(=O)c1ccccc1N1C(=O)C2C3C=CC(C4CC34)C2C1=O)C(=O)c1ccccc1 (stereo not drawn) | 1570 | > 100 | 961 | – | – |
| COc1ccc(C2C(C(=O)Nc3ccc(OC)c(OC)c3)CCC(=O)N2c2ccc(OC)cc2)cc1 (stereo not drawn) | 2270 | > 10 | > 1360 | – | – |
| Cc1oc2c(c1C(=O)N1CCC(C)CC1)C(=O)c1ccccc1C2=O | 79.2 | 48.3 | 222 | – | – |
| C1=C(c2ccc(CN3CCCCC3)cc2)N2CCN=C2c2ccccc21 | 579 | 4.14 | 278 | – | – |
| O=C(NCCCCNc1ccnc2cc(Cl)ccc12)c1cccc(Br)c1 | 453 | > 10 | 422 | – | – |
